Paper PMC7213754 (Clinical cancer research : an official journal of the …, 2009)
Where “and” joins values, the source holds several entries; their conditions need not be identical. Identical values can stand only once. Entries after “also recorded” stand apart in the source; their conditions may differ. One block for each compound: values may come before it.

Assays:
Pgp [1] = molecular target: T1, Pgp (Homo sapiens, UniProt P08183); assay: Rhodamine efflux from circulating CD56+ cells of patients
T1 sequence (P08183 whole entry): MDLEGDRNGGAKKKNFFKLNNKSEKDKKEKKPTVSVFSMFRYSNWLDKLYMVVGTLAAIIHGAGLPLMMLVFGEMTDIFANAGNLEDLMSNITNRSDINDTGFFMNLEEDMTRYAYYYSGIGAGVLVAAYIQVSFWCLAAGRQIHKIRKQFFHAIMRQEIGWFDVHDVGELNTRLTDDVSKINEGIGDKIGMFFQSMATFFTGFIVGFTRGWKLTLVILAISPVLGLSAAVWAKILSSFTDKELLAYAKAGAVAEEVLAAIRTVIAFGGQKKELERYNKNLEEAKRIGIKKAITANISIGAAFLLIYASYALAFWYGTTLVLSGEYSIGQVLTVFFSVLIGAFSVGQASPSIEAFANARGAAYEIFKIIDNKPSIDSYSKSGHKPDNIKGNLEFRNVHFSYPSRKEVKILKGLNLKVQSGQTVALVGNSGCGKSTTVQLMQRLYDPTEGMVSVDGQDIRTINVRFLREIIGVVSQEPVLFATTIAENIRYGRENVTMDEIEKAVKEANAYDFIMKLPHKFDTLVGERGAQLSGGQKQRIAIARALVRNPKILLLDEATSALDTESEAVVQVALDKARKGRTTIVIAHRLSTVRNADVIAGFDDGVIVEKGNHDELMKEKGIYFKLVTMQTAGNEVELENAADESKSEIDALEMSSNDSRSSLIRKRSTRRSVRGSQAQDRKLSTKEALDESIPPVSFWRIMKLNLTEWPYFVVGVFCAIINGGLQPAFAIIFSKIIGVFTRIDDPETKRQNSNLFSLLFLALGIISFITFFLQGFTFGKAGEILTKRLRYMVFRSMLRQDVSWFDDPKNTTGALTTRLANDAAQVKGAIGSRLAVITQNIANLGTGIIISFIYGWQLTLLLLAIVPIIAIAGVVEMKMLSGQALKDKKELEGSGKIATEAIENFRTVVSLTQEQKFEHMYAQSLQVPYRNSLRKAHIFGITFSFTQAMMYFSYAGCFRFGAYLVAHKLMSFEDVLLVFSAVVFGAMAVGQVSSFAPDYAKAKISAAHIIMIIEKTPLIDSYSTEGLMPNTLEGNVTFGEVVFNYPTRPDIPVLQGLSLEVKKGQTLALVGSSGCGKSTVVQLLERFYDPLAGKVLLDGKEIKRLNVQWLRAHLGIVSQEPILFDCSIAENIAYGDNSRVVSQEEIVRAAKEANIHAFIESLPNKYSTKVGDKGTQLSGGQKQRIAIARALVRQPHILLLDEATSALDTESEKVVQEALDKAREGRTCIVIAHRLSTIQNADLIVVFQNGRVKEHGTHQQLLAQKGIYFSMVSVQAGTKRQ

Pgp [2] = conditions: cited from earlier work
Pgp [3] = molecular target: T1, Pgp; assay: 99mTc-sestamibi scanning at baseline and after tariquidar; assay type: in vivo
[4] = tested on: multidrug-resistant human tumor cell lines; conditions: in vitro; cited from earlier work
[5] = Tariquidar pharmacokinetics in patients; assay type: in vivo, human; conditions: for concentration at 24 h / concentration at 48 h: intravenous, mean plasma concentration
Pgp [6] = molecular target: T1, Pgp; conditions: 150 mg tariquidar; cited from earlier work
[7] = Vinorelbine pharmacokinetics in patients, alone and with tariquidar; assay type: in vivo, human; conditions: for effect of tariquidar on vinorelbine pharmacokinetics: tariquidar 150 mg before vinorelbine
[8] = cited from earlier work
[9] = cycle 2, 150 mg i.v. over 30 min, individual patients
[10] = vinorelbine after tariquidar (post), individual patients
[11] = vinorelbine after tariquidar, eight patients
[12] = vinorelbine alone (pre), individual patients
[13] = vinorelbine alone, eight patients

rhodamine efflux from CD56+ cells with exogenously added inhibitor (Pgp [1]; added exogenously to blood sample): completely blocked
Compound: C/C=C/C[C@@H](C)C(=O)[C@H]1C(=O)N[C@@H](C(C)C)C(=O)N(C)CC(=O)N(C)[C@@H](CC(C)C)C(=O)N[C@@H](C(C)C)C(=O)N(C)[C@@H](CC(C)C)C(=O)N[C@@H](C)C(=O)N[C@H](C)C(=O)N(C)[C@@H](CC(C)C)C(=O)N(C)[C@@H](CC(C)C)C(=O)N(C)[C@@H](C(C)C)C(=O)N1C [PSC833, valspodar]

effect on liver 99mTc-sestamibi clearance (Pgp [3]; 150-mg dose): reduced liver 99mTc-sestamibi clearance | difference in drug exposure between 2 patients ([5]; 150 mg tariquidar): > 7 fold | concentration at 24 h ([5]; human, plasma, 150 mg, cycle 1): 119 ng/mL | concentration at 24 h ([5]; human, plasma, 150 mg, cycle 2): 121 ng/mL | concentration at 48 h ([5]; human, plasma, 150 mg, cycle 1): 79.4 ng/mL | concentration at 48 h ([5]; human, plasma, 150 mg, cycle 2): 69.5 ng/mL | Clearance ([5]; human, plasma, iv, 150 mg, Clearance, median, cycle 2, 150 mg i.v. over 30 min, 18 patients): 235 mL/min | Cmax ([5]; human, plasma, iv, 150 mg, Cmax, median, cycle 2, 150 mg i.v. over 30 min, 18 patients): 1220 ng/mL | Half-life ([5]; human, plasma, iv, 150 mg, Half-life, median, cycle 2, 150 mg i.v. over 30 min, 18 patients): 33 h | Vd ([5]; human, plasma, iv, 150 mg, Vdss, median, cycle 2, 150 mg i.v. over 30 min, 18 patients): 261 L | Clearance ([5]; human, plasma, iv, 150 mg, mean (±SD) clearance, 150 mg i.v.): 287 ± 196 mL/min | Half-life ([5]; human, plasma, iv, 150 mg, mean (±SD) terminal half-life, 150 mg i.v.): 33.6 ± 13.5 h
Compound: COc1cc2c(cc1OC)CN(CCc1ccc(NC(=O)c3cc(OC)c(OC)cc3NC(=O)c3cnc4ccccc4c3)cc1)CC2 [tariquidar]
mode of inhibition of Pgp transport (Pgp [2]): noncompetitive | transport substrate of Pgp (Pgp [2]): not a transport substrate of Pgp | difference in mean 99mTc-sestamibi AUC in heart, lungs and liver (Pgp [3]; baseline versus after tariquidar, all study patients): Large differences were noted in Pgp-expressing liver but not in the heart nor in the lungs | tolerability (in vivo): well-tolerated | duration of action after removal of drug from the culture medium [4]: at least 22 hours | Clearance [5, 9]: 170 mL/min and 312 mL/min and 559 mL/min and 309 mL/min and 249 mL/min and 302 mL/min and 444 mL/min and 784 mL/min and 221 mL/min and 269 mL/min and 623 mL/min and 166 mL/min and 83 mL/min and 129 mL/min and 111 mL/min and 137 mL/min and 108 mL/min and 191 mL/min | Cmax [5, 9]: 1,551 ng/mL and 1,317 ng/mL and 963 ng/mL and 1,362 ng/mL and 1,102 ng/mL and 582 ng/mL and 1,168 ng/mL and 516 ng/mL and 912 ng/mL and 911 ng/mL and 622 ng/mL and 5,793 ng/mL and 3,632 ng/mL and 1,266 ng/mL and 6,113 ng/mL and 4,628 ng/mL and 2,207 ng/mL and 1,008 ng/mL | Half-life [5, 9]: 27.2 h and 33.2 h and 17.5 h and 25.5 h and 27.6 h and 43.8 h and 15.7 h and 14.2 h and 42.2 h and 23.8 h and 19.2 h and 32.9 h and 63.1 h and 44.4 h and 45.0 h and 50.6 h and 35.8 h | Vdss [5, 9]: 136 L and 343 L and 248 L and 206 L and 199 L and 661 L and 142 L and 348 L and 439 L and 553 L and 604 L and 82.3 L and 85.1 L and 447 L and 274 L and 234 L and 317 L and 247 L | mean change of 99mTc-sestamibi accumulation and retention in the liver (Pgp [6]): +128% | Pgp block by i.v. tariquidar compared with exogenous PSC833 (Pgp [1]; 8, 24 and 48 h after 150 mg i.v.): as effective in blocking Pgp as an excess of PSC833 added exogenously | effect of tariquidar on vinorelbine pharmacokinetics [7]: no apparent effect of tariquidar on the disposition of vinorelbine; also recorded: did not affect the pharmacokinetics of vinorelbine | effect of tariquidar on vinorelbine pharmacokinetics ([7]; listed as Tariquidar): no effects on vinorelbine pharmacokinetics

Compound: CCC1=C[C@@H]2CN(C1)Cc1c([nH]c3ccccc13)[C@@](C(=O)OC)(c1cc3c(cc1OC)N(C)[C@H]1[C@@](O)(C(=O)OC)[C@H](OC(C)=O)[C@]4(CC)C=CCN5CC[C@]31[C@@H]54)C2 [vinorelbine]
maximum tolerated dose of vinorelbine in the combination (days 1 and 8 every 21 d with tariquidar 150 mg, without filgrastim): 20 mg/m^2 | effect of vinorelbine on tariquidar pharmacokinetics ([5]; human, in vivo): no effect on tariquidar pharmacokinetics | dose of vinorelbine felt to be tolerable with zosuquidar ([8]; i.v. weekly for 3 weeks every 28 days): 22.5 mg/m^2 | Clearance Post [7, 10]: 518 mL/min/m^2 and 536 mL/min/m^2 and 555 mL/min/m^2 and 1,097 mL/min/m^2 and 589 mL/min/m^2 and 617 mL/min/m^2 and 477 mL/min/m^2 and 462 mL/min/m^2 | t1/2 Post [7, 10]: 23 h and 51 h and 21 h and 43 h and 36 h and 58 h | Clearance Post, median and range [7, 11]: 546 mL/min/m^2 and 462-1,097 mL/min/m^2 | t1/2 Post, median and range [7, 11]: 21 to 58 h | AUC0-∞ Pre ([7]; vinorelbine alone (pre), i.v. bolus 20 or 22.5 mg/m^2, individual patients): 844 ng·h/mL and 635 ng·h/mL and 511 ng·h/mL and 838 ng·h/mL and 603 ng·h/mL and 758 ng·h/mL and 756 ng·h/mL | Clearance Pre [7, 12]: 600 mL/min/m^2 and 444 mL/min/m^2 and 591 mL/min/m^2 and 652 mL/min/m^2 and 398 mL/min/m^2 and 553 mL/min/m^2 and 495 mL/min/m^2 and 496 mL/min/m^2 | t1/2 Pre [7, 12]: 22 h and 19 h and 28 h and 48 h and 21 h and 37 h and 36 h | AUC0-∞ Pre, median and range [7, 13]: 511 to 844 ng·h/mL | Clearance Pre, median and range [7, 13]: 524 mL/min/m^2 and 398-652 mL/min/m^2 | t1/2 Pre, median and range [7, 13]: 18 to 48 h

Compound: O[C@@H](COc1cccc2ncccc12)CN1CCN([C@@H]2c3ccccc3[C@@H]3[C@H](c4ccccc42)C3(F)F)CC1 [zosuquidar]
effect of zosuquidar on vinorelbine clearance ([8]; phase I study): may inhibit vinorelbine clearance to a modest degree
